Here are results for one molecule from patent US20030119067A1, “PYK2 related products and methods” (Sugen, Inc., priority 1996, published 2003).

This experiment relates to PYK-2. Description: Tyrosine phosphorylation of PYK-2 in NIH3T3 cells overexpressing PYK-2. In kind it is cell-based. The note with it: NIH3T3 cells overexpressing PYK-2 / PYK-2-HA; TPA 6 μM, 15 min, 37° C. From the text: The PYK-2 cDNA cloned in pLSV was cotransfected with pSV2neo into PC12 cells and NIH3T3 in order to establish stable cell lines. G418 resistant colonies were screened by immunoprecipitating and immunoblotting.
NIH3T3 cell lines were established that overexpress the PYK-2 and the PYK-2-HA protein. […] The level of phosphorylation is not so high.

Consider `CCCCCCCCCCCCCC(=O)O[C@@H]1[C@@H](C)[C@@]2(O)[C@@H](C=C(CO)C[C@]3(O)C(=O)C(C)=C[C@@H]23)[C@@H]2C(C)(C)[C@]12OC(C)=O` [PMA, phorbol 12-myristate 13-acetate], for which the “tyrosine phosphorylation of PYK-2” value was “stronger effect”.
